Test systems include KM12 colon; COLO 205 colon; ACHN renal; HT29 colon; SK-OV-3 ovarian; RPMI-8226 leukemia; MALME-3M melanoma; SF-539 CNS; MDA-MB-435; NCI-H226 lung.
Common to all, as to test: DTP human tumour cell line panel, 48 h

The values that follow come from PubChem BioAssay (NCI).

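Assay format: 96-well plates, 48-hour exposure. GI50 marks 50% less growth. TGI: concentration producing complete growth inhibition.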

In the case of `CCN(CC)CCCNc1ccc(C)c2sc3ccccc3c(=O)c12`, the GI50 in the test on KM12 colon is 1.11 µM; with COLO 205 colon it was 0.189 µM; in the test on ACHN renal, 0.869 µM; with HT29 colon it was 0.279 µM; in the test with SK-OV-3 ovarian it was 1.51 µM; in the test with RPMI-8226 leukemia, 0.33 µM. Moreover, the GI50 in the test on MALME-3M melanoma was 0.193 µM; in the test with SF-539 CNS, 1.3 µM; with MDA-MB-435, 0.21 µM. Moreover, the total growth inhibition concentration (TGI) was found to be 2.74 µM with KM12 colon; 0.384 µM in the test on COLO 205 colon; 2.31 µM in the test with ACHN renal; 1.09 µM in the test with HT29 colon; 4.82 µM in the test on SK-OV-3 ovarian; 1.34 µM in the test on RPMI-8226 leukemia. Also, the concentration for total growth inhibition (TGI) in the test with MALME-3M melanoma worked out at 0.402 µM; in the test with SF-539 CNS it was 2.81 µM; in the test with MDA-MB-435, 0.451 µM.
On to `COc1cc([C@@H]2c3cc4c(cc3[C@@H](NC(=O)c3ccc(C#N)cc3)C3COC(=O)[C@@H]32)OCO4)cc(OC)c1O` (stereo not given in full), for which the TGI amounted to 3.2 µM in the test on KM12 colon; 16.4 µM in the test on COLO 205 colon; 1.47 µM in the test on ACHN renal; 4.23 µM in the test on HT29 colon; 2.87 µM in the test on SK-OV-3 ovarian; 11.7 µM in the test on RPMI-8226 leukemia. In addition, the TGI with MALME-3M melanoma amounted to 2.59 µM; in the test with NCI-H226 lung it was 0.508 µM; in the test on SF-539 CNS, 1.66 µM.
With `O=[N+]([O-])c1ccc(Cl)c2c([N+](=O)[O-])cccc12`, the concentration for total growth inhibition (TGI) is > 10 µM in the test with KM12 colon; > 10 µM in the test on COLO 205 colon; > 10 µM with HT29 colon; 7.48 µM in the test with SK-OV-3 ovarian; > 10 µM in the test with RPMI-8226 leukemia; > 10 µM with MALME-3M melanoma. Besides, the results for the concentration for total growth inhibition (TGI) in the test with SF-539 CNS and in the test on MDA-MB-435 were 5.91 µM and 9.61 µM, respectively.
`COc1cc2oc(-c3ccc(O)cc3)cc(=O)c2c(O)c1C1OC(CO)C(O)C(O)C1O` (stereo not given): the TGI in the test with KM12 colon, in the test on COLO 205 colon, in the test on ACHN renal, in the test on HT29 colon, in the test with SK-OV-3 ovarian and in the test with RPMI-8226 leukemia was > 100 µM throughout. The TGI with MALME-3M melanoma, in the test on NCI-H226 lung and in the test with SF-539 CNS was > 100 µM throughout.
As to `Cc1nc(N)nc(CCC(=O)Nc2cccc(C(F)(F)F)c2)c1-c1ccc(Cl)cc1`, the total growth inhibition concentration (TGI) with KM12 colon, in the test with COLO 205 colon, in the test with ACHN renal, with HT29 colon, in the test with SK-OV-3 ovarian and in the test on RPMI-8226 leukemia was > 100 µM throughout. In addition, the TGI in the test with MALME-3M melanoma, with NCI-H226 lung and in the test on SF-539 CNS was > 100 µM in each case.
Consider `COc1ccc(OC)c(/C=C/c2nc(=S)n(-c3ccc(Cl)cc3)[nH]2)c1`, for which the GI50 in the test with KM12 colon was 4.03 µM; in the test on COLO 205 colon, 12.4 µM; in the test on ACHN renal, 23.8 µM; in the test on HT29 colon, 3.67 µM; in the test with SK-OV-3 ovarian, 9.4 µM; in the test with RPMI-8226 leukemia, 5.22 µM. For the same compound, the GI50 is 70.6 µM with MALME-3M melanoma, 4.05 µM with SF-539 CNS and 2.83 µM with MDA-MB-435. Moreover, the total growth inhibition concentration (TGI) was > 100 µM in the test with KM12 colon; 68.4 µM in the test with COLO 205 colon; > 100 µM in the test on ACHN renal; > 100 µM in the test on HT29 colon; > 100 µM in the test with SK-OV-3 ovarian; > 100 µM with RPMI-8226 leukemia. Further, the total growth inhibition concentration (TGI) with MALME-3M melanoma is > 100 µM; in the test with SF-539 CNS, 97.9 µM; with MDA-MB-435, > 100 µM.
With `CCc1cccc(C)c1NC(=O)CCc1nc(=S)[nH][nH]1`, the TGI in the test with KM12 colon, in the test with ACHN renal, in the test on HT29 colon, in the test with SK-OV-3 ovarian, in the test with RPMI-8226 leukemia and in the test with MALME-3M melanoma was > 100 µM in each case. For the same compound, the concentration for total growth inhibition (TGI) in the test with NCI-H226 lung and in the test with SF-539 CNS was > 100 µM in each case.
Take `O=C(NC1C(=O)NNC1c1cccc([N+](=O)[O-])c1)c1ccccc1` (stereo not given): the TGI in the test with KM12 colon, in the test with COLO 205 colon, in the test on ACHN renal, with HT29 colon, in the test with RPMI-8226 leukemia and in the test with MALME-3M melanoma was > 100 µM each time. The concentration for total growth inhibition (TGI) in the test with NCI-H226 lung is > 100 µM.
`OCc1cc2c(cn1)[nH]c1ccc(NCc3ccccc3)cc12`: the TGI in the test on KM12 colon is 43.3 µM; in the test with COLO 205 colon it was 37 µM; in the test with ACHN renal, > 100 µM; in the test on HT29 colon it was 32.2 µM; with SK-OV-3 ovarian, 86.2 µM; in the test with RPMI-8226 leukemia, 35.8 µM. Moreover, the values for the TGI with MALME-3M melanoma, in the test on NCI-H226 lung and in the test with SF-539 CNS were > 100 µM, 54.4 µM and > 100 µM, respectively.
On to `O=c1cc(O)cc2n1CCC2`, for which the TGI in the test on KM12 colon, with COLO 205 colon, in the test with ACHN renal, in the test with HT29 colon, with SK-OV-3 ovarian and with RPMI-8226 leukemia was > 100 µM in each case. For the same compound, the TGI in the test on MALME-3M melanoma, with NCI-H226 lung and in the test on SF-539 CNS was > 100 µM throughout.
In the case of `Cc1c(C(=N)C(C#N)C#N)c(=N)oc2c1ccc1ccccc12`, the GI50 in the test with KM12 colon was 26.2 µM; in the test on COLO 205 colon, 14.9 µM; with ACHN renal it was 23.1 µM; in the test with HT29 colon it was 20.5 µM; with SK-OV-3 ovarian, 21.3 µM; with RPMI-8226 leukemia, 20.8 µM. For the same compound, the GI50 is 22.3 µM in the test on MALME-3M melanoma, 20.6 µM with SF-539 CNS and 22.2 µM with MDA-MB-435. Besides, the TGI in the test on KM12 colon was > 100 µM; in the test on COLO 205 colon, 29.8 µM; in the test with ACHN renal, > 100 µM; with HT29 colon it was 71.1 µM; in the test on SK-OV-3 ovarian it was 63.3 µM; in the test with RPMI-8226 leukemia, 78.3 µM. Also, the figures for the TGI in the test with MALME-3M melanoma, in the test with SF-539 CNS and in the test on MDA-MB-435 were 80.7 µM, 71.5 µM and > 100 µM, respectively.
With `COC(=O)C1C(=O)O[C@@H](c2ccc3c(c2)OCO3)C1C(=O)OC` (mixture of isomers), the TGI in the test with KM12 colon, in the test on COLO 205 colon, in the test on ACHN renal, in the test on HT29 colon, in the test with SK-OV-3 ovarian and in the test with RPMI-8226 leukemia was > 100 µM each time. The TGI in the test on MALME-3M melanoma, in the test on NCI-H226 lung and in the test with SF-539 CNS was > 100 µM each time.
With `CCN(C)c1nc(N(C)CC)c2nc(N(C)CC)nc(N(C)CC)c2n1`, the TGI in the test with KM12 colon, in the test with COLO 205 colon, in the test with ACHN renal, with HT29 colon, with SK-OV-3 ovarian and in the test with RPMI-8226 leukemia was > 100 µM throughout. In addition, the TGI with MALME-3M melanoma, in the test on SF-539 CNS and with MDA-MB-435 was > 100 µM in each case.

For orientation: GI50 means the concentration that inhibits growth by half. For orientation: TGI means the concentration at which net growth stops. A low value points to greater sensitivity of the cells.
